Measurements published in patent US9980943B2, “Methods of treating muscular dystrophy” (BOARD OF REGENTS OF THE NEVADA SYSTEM OF HIGHER EDUCATION, …, priority 2013, dated 2018).

Experiments:
Type in all cases: cell-based, mouse
[1] = system: β-galactosidase in CMV-LacZ C2C12 myotubes; assay: CMV-LacZ secondary screen in C2C12 myotubes (β-Gal stabilizing assay); details: for CMV-LACZ in Myotubes (β-galactosidase activity relative to DMSO): CMV-LacZ C2C12 myotubes, 96-well format
Outline: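 Stable CMV-LacZ C2C12 clone; six-point curve 0.5–40 μM; duplicates.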

[2] = system: α7 integrin (LacZ reporter in α7βgal+/− myoblasts); assay: Myoblast α7+/LacZ integrin FDG assay (Burkin assay in myoblasts, 96-well); details: α7+/LacZ myoblasts, 96-well
[3] = system: α7 integrin (LacZ reporter in α7+/LacZ myotubes); assay: Myotube α7 integrin FDG assay (Burkin assay in myotubes, 96-well); details: myotubes
[4] = 5 uM, C2C12 CMV-LacZ myotubes, fold relative to DMSO
[5] = 10 uM, C2C12 CMV-LacZ myotubes, fold relative to DMSO
[6] = 20 uM, C2C12 CMV-LacZ myotubes, fold relative to DMSO
[7] = 40 uM, C2C12 CMV-LacZ myotubes, fold relative to DMSO

COc1cccc(NC(=O)c2ccc3c(c2)CCCC3)c1 [MLS000879190-01]
fold induction at 5 µM ([1]; Mus musculus, C2C12, read-out: CMV-LACZ in Myotubes, signal relative to DMSO, 5 uM, C2C12 CMV-LacZ myotubes, fold relative to DMSO): 0.991
fold induction at 10 µM ([1]; Mus musculus, C2C12, read-out: CMV-LACZ in Myotubes, signal relative to DMSO, 10 uM, C2C12 CMV-LacZ myotubes, fold relative to DMSO): 1.05
fold induction at 20 µM ([1]; Mus musculus, C2C12, read-out: CMV-LACZ in Myotubes, signal relative to DMSO, 20 uM, C2C12 CMV-LacZ myotubes, fold relative to DMSO): 0.85
fold induction at 40 µM ([1]; Mus musculus, C2C12, read-out: CMV-LACZ in Myotubes, signal relative to DMSO, 40 uM, C2C12 CMV-LacZ myotubes, fold relative to DMSO): 0.463
fold induction at 0.5 µM ([2]; Mus musculus, Myoblast, 48 h, 0.5 uM, read-out: Burkin Assay in Myoblasts, value relative to DMSO): 1.1
fold induction at 1 µM ([2]; Mus musculus, Myoblast, 48 h, 1 uM, read-out: Burkin Assay in Myoblasts, value relative to DMSO): 1.34
fold induction at 5 µM ([2]; Mus musculus, Myoblast, 48 h, 5 uM, read-out: Burkin Assay in Myoblasts, value relative to DMSO): 1.19
fold induction at 10 µM ([2]; Mus musculus, Myoblast, 48 h, 10 uM, read-out: Burkin Assay in Myoblasts, value relative to DMSO): 1.38
fold induction at 20 µM ([2]; Mus musculus, Myoblast, 48 h, 20 uM, read-out: Burkin Assay in Myoblasts, value relative to DMSO): 1.09
fold induction at 40 µM ([2]; Mus musculus, Myoblast, 48 h, 40 uM, read-out: Burkin Assay in Myoblasts, value relative to DMSO): 1.13
fold induction at 0.5 µM ([3]; Mus musculus, Myotube, 0.5 uM, read-out: Burkin Assay in Myotubes (signal relative to DMSO)): 0.965
fold induction at 1 µM ([3]; Mus musculus, Myotube, 1 uM, read-out: Burkin Assay in Myotubes (signal relative to DMSO)): 1.13
fold induction at 5 µM ([3]; Mus musculus, Myotube, 5 uM, read-out: Burkin Assay in Myotubes (signal relative to DMSO)): 1.05
fold induction at 10 µM ([3]; Mus musculus, Myotube, 10 uM, read-out: Burkin Assay in Myotubes (signal relative to DMSO)): 0.913
fold induction at 20 µM ([3]; Mus musculus, Myotube, 20 uM, read-out: Burkin Assay in Myotubes (signal relative to DMSO)): 1.08
fold induction at 40 µM ([3]; Mus musculus, Myotube, 40 uM, read-out: Burkin Assay in Myotubes (signal relative to DMSO)): 0.849

O=c1[nH]c(C2CCCN(S(=O)(=O)c3ccccc3)C2)nc2c1nnn2Cc1cccc(Cl)c1 (stereo not shown) [MLS001217286-01]
CMV-LACZ in Myotubes (β-galactosidase activity relative to DMSO) ([1]; 5 uM): 0.9599
CMV-LACZ in Myotubes (β-galactosidase activity relative to DMSO) ([1]; 10 uM): 1.227
CMV-LACZ in Myotubes (β-galactosidase activity relative to DMSO) ([1]; 20 uM): 0.3991
CMV-LACZ in Myotubes (β-galactosidase activity relative to DMSO) ([1]; 40 uM): 0.3604
Burkin Assay in Myoblasts, value relative to DMSO ([2]; 0.5 uM): 0.7428
Burkin Assay in Myoblasts, value relative to DMSO ([2]; 1 uM): 0.8506
Burkin Assay in Myoblasts, value relative to DMSO ([2]; 5 uM): 0.7671
Burkin Assay in Myoblasts, value relative to DMSO ([2]; 10 uM): 0.8273
Burkin Assay in Myoblasts, value relative to DMSO ([2]; 20 uM): 1.006
Burkin Assay in Myoblasts, value relative to DMSO ([2]; 40 uM): 1.068
Burkin Assay in Myotubes (signal relative to DMSO) ([3]; 0.5 uM): 0.7617
Burkin Assay in Myotubes (signal relative to DMSO) ([3]; 1 uM): 0.9911
Burkin Assay in Myotubes (signal relative to DMSO) ([3]; 5 uM): 1.193
Burkin Assay in Myotubes (signal relative to DMSO) ([3]; 10 uM): 1.219
Burkin Assay in Myotubes (signal relative to DMSO) ([3]; 20 uM): 1.095
Burkin Assay in Myotubes (signal relative to DMSO) ([3]; 40 uM): 0.5964

COc1ccc(S(=O)(=O)N2CCN(C(=O)C3CCC3)CC2)cc1 [MLS001139515-01]
CMV-LACZ in Myotubes (β-galactosidase activity relative to DMSO) ([1]; 5 uM): 0.9404
CMV-LACZ in Myotubes (β-galactosidase activity relative to DMSO) ([1]; 10 uM): 0.7604
CMV-LACZ in Myotubes (β-galactosidase activity relative to DMSO) ([1]; 20 uM): 0.9237
CMV-LACZ in Myotubes (β-galactosidase activity relative to DMSO) ([1]; 40 uM): 0.9601
Burkin Assay in Myoblasts, value relative to DMSO ([2]; 0.5 uM): 0.9225
Burkin Assay in Myoblasts, value relative to DMSO ([2]; 1 uM): 0.9852
Burkin Assay in Myoblasts, value relative to DMSO ([2]; 5 uM): 1.053
Burkin Assay in Myoblasts, value relative to DMSO ([2]; 10 uM): 1.16
Burkin Assay in Myoblasts, value relative to DMSO ([2]; 20 uM): 0.8336
Burkin Assay in Myoblasts, value relative to DMSO ([2]; 40 uM): 0.8527
Burkin Assay in Myotubes (signal relative to DMSO) ([3]; 0.5 uM): 0.9636
Burkin Assay in Myotubes (signal relative to DMSO) ([3]; 1 uM): 1.009
Burkin Assay in Myotubes (signal relative to DMSO) ([3]; 5 uM): 1.013
Burkin Assay in Myotubes (signal relative to DMSO) ([3]; 10 uM): 0.9488
Burkin Assay in Myotubes (signal relative to DMSO) ([3]; 20 uM): 1.124
Burkin Assay in Myotubes (signal relative to DMSO) ([3]; 40 uM): 1.013

N#Cc1ccc(OCC(O)CS(=O)(=O)c2ccccc2)cc1 (stereo not shown) [MLS000721584-01]
CMV-LACZ in Myotubes, signal relative to DMSO [1, 4]: 0.9573
CMV-LACZ in Myotubes, signal relative to DMSO [1, 5]: 0.9071
CMV-LACZ in Myotubes, signal relative to DMSO [1, 6]: 1.133
CMV-LACZ in Myotubes, signal relative to DMSO [1, 7]: 1.1019
Burkin Assay in Myoblasts, signal relative to DMSO ([2]; 0.5 uM): 0.933
Burkin Assay in Myoblasts, signal relative to DMSO ([2]; 1 uM): 0.8525
Burkin Assay in Myoblasts, signal relative to DMSO ([2]; 5 uM): 1.03
Burkin Assay in Myoblasts, signal relative to DMSO ([2]; 10 uM): 0.9846
Burkin Assay in Myoblasts, signal relative to DMSO ([2]; 20 uM): 0.8663
Burkin Assay in Myoblasts, signal relative to DMSO ([2]; 40 uM): 0.7628
Burkin Assay in Myotubes, α7 integrin LacZ reporter signal relative to DMSO ([3]; 0.5 uM): 0.9148
Burkin Assay in Myotubes, α7 integrin LacZ reporter signal relative to DMSO ([3]; 1 uM): 0.9833
Burkin Assay in Myotubes, α7 integrin LacZ reporter signal relative to DMSO ([3]; 5 uM): 0.8802
Burkin Assay in Myotubes, α7 integrin LacZ reporter signal relative to DMSO ([3]; 10 uM): 0.8867
Burkin Assay in Myotubes, α7 integrin LacZ reporter signal relative to DMSO ([3]; 20 uM): 0.9155
Burkin Assay in Myotubes, α7 integrin LacZ reporter signal relative to DMSO ([3]; 40 uM): 0.9927

CCCCNS(=O)(=O)c1ccc2nc(-c3cccnc3)cc(C(=O)NCCOC)c2c1 [MLS000673766-01]
CMV-LACZ in Myotubes, signal relative to DMSO [1, 4]: 0.9847
CMV-LACZ in Myotubes, signal relative to DMSO [1, 5]: 0.9632
CMV-LACZ in Myotubes, signal relative to DMSO [1, 6]: 1.11
CMV-LACZ in Myotubes, signal relative to DMSO [1, 7]: 1.04
Burkin Assay in Myoblasts, value relative to DMSO ([2]; 0.5 uM): 1.02
Burkin Assay in Myoblasts, value relative to DMSO ([2]; 1 uM): 1.061
Burkin Assay in Myoblasts, value relative to DMSO ([2]; 5 uM): 0.928
Burkin Assay in Myoblasts, value relative to DMSO ([2]; 10 uM): 1.0253
Burkin Assay in Myoblasts, value relative to DMSO ([2]; 20 uM): 0.91
Burkin Assay in Myoblasts, value relative to DMSO ([2]; 40 uM): 0.9919
Burkin Assay in Myotubes (signal relative to DMSO) ([3]; 0.5 uM): 0.968
Burkin Assay in Myotubes (signal relative to DMSO) ([3]; 1 uM): 0.9862
Burkin Assay in Myotubes (signal relative to DMSO) ([3]; 5 uM): 0.896
Burkin Assay in Myotubes (signal relative to DMSO) ([3]; 10 uM): 0.9276
Burkin Assay in Myotubes (signal relative to DMSO) ([3]; 20 uM): 0.8272
Burkin Assay in Myotubes (signal relative to DMSO) ([3]; 40 uM): 0.8717

COc1cc(/C=C/c2nc(-c3ccccc3O)n[nH]2)cc(OC)c1OC [MLS000548725-01]
CMV-LACZ in Myotubes (β-galactosidase activity relative to DMSO) ([1]; 5 uM): 0.9789
CMV-LACZ in Myotubes (β-galactosidase activity relative to DMSO) ([1]; 10 uM): 1.126
CMV-LACZ in Myotubes (β-galactosidase activity relative to DMSO) ([1]; 20 uM): 0.8729
CMV-LACZ in Myotubes (β-galactosidase activity relative to DMSO) ([1]; 40 uM): 0.332
Burkin Assay in Myoblasts, value relative to DMSO ([2]; 0.5 uM): 0.9132
Burkin Assay in Myoblasts, value relative to DMSO ([2]; 1 uM): 0.8894
Burkin Assay in Myoblasts, value relative to DMSO ([2]; 5 uM): 0.8989
Burkin Assay in Myoblasts, value relative to DMSO ([2]; 10 uM): 0.7645
Burkin Assay in Myoblasts, value relative to DMSO ([2]; 20 uM): 0.5169
Burkin Assay in Myoblasts, value relative to DMSO ([2]; 40 uM): 0.07694
Burkin Assay in Myotubes (signal relative to DMSO) ([3]; 0.5 uM): 0.8698
Burkin Assay in Myotubes (signal relative to DMSO) ([3]; 1 uM): 0.8418
Burkin Assay in Myotubes (signal relative to DMSO) ([3]; 5 uM): 0.9206
Burkin Assay in Myotubes (signal relative to DMSO) ([3]; 10 uM): 0.8462
Burkin Assay in Myotubes (signal relative to DMSO) ([3]; 20 uM): 1.031
Burkin Assay in Myotubes (signal relative to DMSO) ([3]; 40 uM): 0.2219

CCCCN(CCCC)CCNC(=O)c1cn(C)c2ccc(S(=O)(=O)N(C)C3CCCCC3)cc2c1=O [MLS000913117-01]
CMV-LACZ in Myotubes, signal relative to DMSO [1, 4]: 0.8036
CMV-LACZ in Myotubes, signal relative to DMSO [1, 5]: 0.8262
CMV-LACZ in Myotubes, signal relative to DMSO [1, 6]: 0.5938
CMV-LACZ in Myotubes, signal relative to DMSO [1, 7]: 0.6538
Burkin Assay in Myoblasts, signal relative to DMSO ([2]; 0.5 uM): 0.9085
Burkin Assay in Myoblasts, signal relative to DMSO ([2]; 1 uM): 0.9155
Burkin Assay in Myoblasts, signal relative to DMSO ([2]; 5 uM): 0.9138
Burkin Assay in Myoblasts, signal relative to DMSO ([2]; 10 uM): 0.6729
Burkin Assay in Myoblasts, signal relative to DMSO ([2]; 20 uM): 0.1952
Burkin Assay in Myoblasts, signal relative to DMSO ([2]; 40 uM): 0.05713
Burkin Assay in Myotubes, α7 integrin LacZ reporter signal relative to DMSO ([3]; 0.5 uM): 1.09
Burkin Assay in Myotubes, α7 integrin LacZ reporter signal relative to DMSO ([3]; 1 uM): 1.208
Burkin Assay in Myotubes, α7 integrin LacZ reporter signal relative to DMSO ([3]; 5 uM): 0.9655
Burkin Assay in Myotubes, α7 integrin LacZ reporter signal relative to DMSO ([3]; 10 uM): 0.6623
Burkin Assay in Myotubes, α7 integrin LacZ reporter signal relative to DMSO ([3]; 20 uM): 0.495
Burkin Assay in Myotubes, α7 integrin LacZ reporter signal relative to DMSO ([3]; 40 uM): 0.3911
